Reference: ChEMBL document CHEMBL3217526, “Bioguided discovery and pharmacophore modeling of the mycotoxic indole diterpene alkaloids penitrems as breast cancer proliferation, migration, and invasion inhibitors” (Medchemcomm, 2013)

Tests used:
Format in all cases: functional
SK-OV-3 = test: Cytotoxicity against human SKOV3 cells assessed as growth inhibition at 10 uM; conditions: read-out: GI
U-251 = test: Cytotoxicity against human U251 cells assessed as growth inhibition at 10 uM; conditions: read-out: GI
MDA-MB-435 = test: Cytotoxicity against human MDA-MB-435 cells assessed as growth inhibition at 10 uM; conditions: read-out: GI
SK-MEL-28 = test: Cytotoxicity against human SK-MEL-28 cells assessed as growth inhibition at 10 uM; conditions: read-out: GI
NCI-H23 = test: Cytotoxicity against human NCI-H23 cells assessed as growth inhibition at 10 uM; conditions: read-out: GI
SW-620 = test: Cytotoxicity against human SW620 cells assessed as growth inhibition at 10 uM; conditions: read-out: GI
T47D = test: Cytotoxicity against human T47D cells assessed as growth inhibition at 10 uM; conditions: read-out: GI
[1] = Cytotoxicity against human UO31 cells assessed as growth inhibition at 10 uM; conditions: UO-31, read-out: GI
[2] = Cytotoxicity against human OVCAR3 cells assessed as growth inhibition at 10 uM; conditions: OVCAR-3, read-out: GI
NCI-H322M = test: Cytotoxicity against human NCI-H322M cells assessed as growth inhibition at 10 uM; conditions: read-out: GI
786-0 = test: Cytotoxicity against human 786-0 cells assessed as growth inhibition at 10 uM; conditions: read-out: GI
MDA-MB-468 = test: Cytotoxicity against human MDA-MB-468 cells assessed as growth inhibition at 10 uM; conditions: read-out: GI
COLO 205 = test: Cytotoxicity against human COLO205 cells assessed as growth inhibition at 10 uM; conditions: read-out: GI
HCT-116 = test: Cytotoxicity against human HCT116 cells assessed as growth inhibition at 10 uM; conditions: read-out: GI
ACHN = test: Cytotoxicity against human ACHN cells assessed as growth inhibition at 10 uM; conditions: read-out: GI
RXF 393 = test: Cytotoxicity against human RXF393 cells assessed as growth inhibition at 10 uM; conditions: read-out: GI
NCI-H522 = test: Cytotoxicity against human NCI-H522 cells assessed as growth inhibition at 10 uM; conditions: read-out: GI
SF-268 = test: Cytotoxicity against human SF268 cells assessed as growth inhibition at 10 uM; conditions: read-out: GI
MDA-MB-231 [3] = test: Antiinvasive activity against human MDA-MB-231 cells assessed as inhibition of cell invasion at 15 uM after 24 hrs by BME Cell invasion assay kit; conditions: MDA-MB-231, 24 h
TK-10 = test: Cytotoxicity against human TK10 cells assessed as growth inhibition at 10 uM; conditions: read-out: GI
CAKI-1 = test: Cytotoxicity against human CAKI-1 cells assessed as growth inhibition at 10 uM; conditions: read-out: GI
BT-549 = test: Cytotoxicity against human BT549 cells assessed as growth inhibition at 10 uM; conditions: read-out: GI
[4] = Cytotoxicity against human OVCAR5 cells assessed as growth inhibition at 10 uM; conditions: OVCAR-5, read-out: GI
CCRF-CEM = test: Cytotoxicity against human CCRF-CEM cells assessed as growth inhibition at 10 uM; conditions: read-out: GI
NCI-H460 = test: Cytotoxicity against human NCI-H460 cells assessed as growth inhibition at 10 uM; conditions: read-out: GI
[5] = Cytotoxicity against human UACC62 cells assessed as growth inhibition at 10 uM; conditions: UACC-62, read-out: GI
SR = test: Cytotoxicity against human SR cells assessed as growth inhibition at 10 uM; conditions: read-out: GI
HOP-62 = test: Cytotoxicity against human HOP62 cells assessed as growth inhibition at 10 uM; conditions: read-out: GI
HL-60(TB) = test: Cytotoxicity against human HL-60(TB) cells assessed as growth inhibition at 10 uM; conditions: read-out: GI
[6] = Cytotoxicity against human HCT15 cells assessed as growth inhibition at 10 uM; conditions: HCT-15, read-out: GI
LOX IMVI = test: Cytotoxicity against human LOXIMVI cells assessed as growth inhibition at 10 uM; conditions: read-out: GI
KM12 = test: Cytotoxicity against human KM12 cells assessed as growth inhibition at 10 uM; conditions: read-out: GI
IGROV-1 = test: Cytotoxicity against human IGROV1 cells assessed as growth inhibition at 10 uM; conditions: read-out: GI
K562 = test: Cytotoxicity against human K562 cells assessed as growth inhibition at 10 uM; conditions: read-out: GI
DU-145 = test: Cytotoxicity against human DU145 cells assessed as growth inhibition at 10 uM; conditions: read-out: GI
M14 = test: Cytotoxicity against human M14 cells assessed as growth inhibition at 10 uM; conditions: read-out: GI
A549 = test: Cytotoxicity against human A549 cells assessed as growth inhibition at 10 uM; conditions: read-out: GI
MCF7 = test: Cytotoxicity against human MCF7 cells assessed as growth inhibition at 10 uM; conditions: read-out: GI
Malme-3M = test: Cytotoxicity against human MALME-3M cells assessed as growth inhibition at 10 uM; conditions: read-out: GI
HCC 2998 = test: Cytotoxicity against human HCC2998 cells assessed as growth inhibition at 10 uM; conditions: read-out: GI
[7] = Cytotoxicity against human UACC257 cells assessed as growth inhibition at 10 uM; conditions: UACC-257, read-out: GI
NCI-H226 = test: Cytotoxicity against human NCI-H226 cells assessed as growth inhibition at 10 uM; conditions: read-out: GI
SF-539 = test: Cytotoxicity against human SF539 cells assessed as growth inhibition at 10 uM; conditions: read-out: GI
[8] = Cytotoxicity against human EKVX cells assessed as growth inhibition at 10 uM; conditions: read-out: GI
MDA-MB-231 [9] = test: Cytotoxicity against human MDA-MB-231 cells assessed as growth inhibition at 10 uM; conditions: read-out: GI
SK-MEL-2 = test: Cytotoxicity against human SK-MEL-2 cells assessed as growth inhibition at 10 uM; conditions: read-out: GI
PC-3 = test: Cytotoxicity against human PC3 cells assessed as growth inhibition at 10 uM; conditions: read-out: GI
SNB-19 = test: Cytotoxicity against human SNB19 cells assessed as growth inhibition at 10 uM; conditions: read-out: GI
MOLT-4 = test: Cytotoxicity against human MOLT4 cells assessed as growth inhibition at 10 uM; conditions: read-out: GI
SF-295 = test: Cytotoxicity against human SF295 cells assessed as growth inhibition at 10 uM; conditions: read-out: GI
[10] = Cytotoxicity against human Hs578T cells assessed as growth inhibition at 10 uM; conditions: Hs-578T, read-out: GI
HT-29 = test: Cytotoxicity against human HT-29 cells assessed as growth inhibition at 10 uM; conditions: read-out: GI
[11] = Cytotoxicity against human OVCAR8 cells assessed as growth inhibition at 10 uM; conditions: OVCAR-8, read-out: GI
SN12C = test: Cytotoxicity against human SN12C cells assessed as growth inhibition at 10 uM; conditions: read-out: GI
SK-MEL-5 = test: Cytotoxicity against human SK-MEL-5 cells assessed as growth inhibition at 10 uM; conditions: read-out: GI
SNB-75 = test: Cytotoxicity against human SNB75 cells assessed as growth inhibition at 10 uM; conditions: read-out: GI

Q: For C=C(C)[C@H]1O[C@H]2CC[C@@]3(C)[C@@](O)(CC[C@H]4[C@@H]5OC(C)(C)[C@H]6C[C@@H]7C(=C)Cc8c(Cl)cc9[nH]c(c5c9c8[C@@]76O)[C@@]43C)[C@@]23O[C@H]3[C@H]1O [PENITREM A], which inhibition of growth at 10 µM (SK-OV-3) is on record?
A: 109%

Q: What about the inhibition of growth at 10 µM (U-251) of the same compound?
A: 85.1%

Q: What about the inhibition of growth at 10 µM (MDA-MB-435) of the same compound?
A: 52.9%

Q: And the inhibition of growth at 10 µM (SK-MEL-28)?
A: 83.4%

Q: And the inhibition of growth at 10 µM (NCI-H23)?
A: 88.6%

Q: And the inhibition of growth at 10 µM (SW-620)?
A: 93.3%

Q: And the inhibition of growth at 10 µM (T47D)?
A: 73.9%

Q: What about the inhibition of growth at 10 µM [1] of the same compound?
A: 41%

Q: What about the inhibition of growth at 10 µM [2] of the same compound?
A: 92.6%

Q: And the inhibition of growth at 10 µM (NCI-H322M)?
A: 65.2%

Q: What about the inhibition of growth at 10 µM (786-0) of the same compound?
A: 93.1%

Q: And the inhibition of growth at 10 µM (MDA-MB-468)?
A: 69.6%

Q: And the inhibition of growth at 10 µM (COLO 205)?
A: 91.3%

Q: What about the inhibition of growth at 10 µM (HCT-116) of the same compound?
A: 67.4%

Q: And the inhibition of growth at 10 µM (ACHN)?
A: 75.2%

Q: And the inhibition of growth at 10 µM (RXF 393)?
A: 76.5%

Q: What about the inhibition of growth at 10 µM (NCI-H522) of the same compound?
A: 77.1%

Q: And the inhibition of growth at 10 µM (SF-268)?
A: 71%

Q: What about the inhibition at 15 µM (MDA-MB-231 [3]) of the same compound?
A: > 75%

Q: What about the inhibition of growth at 10 µM (TK-10) of the same compound?
A: 98.6%

Q: And the inhibition of growth at 10 µM (CAKI-1)?
A: 35.5%

Q: What about the inhibition of growth at 10 µM (BT-549) of the same compound?
A: 98.2%

Q: And the inhibition of growth at 10 µM [4]?
A: 105%

Q: What about the inhibition of growth at 10 µM (CCRF-CEM) of the same compound?
A: 57.2%

Q: And the inhibition of growth at 10 µM (NCI-H460)?
A: 85.5%

Q: And the inhibition of growth at 10 µM [5]?
A: 74.9%

Q: And the inhibition of growth at 10 µM (SR)?
A: 46%

Q: What about the inhibition of growth at 10 µM (HOP-62) of the same compound?
A: 107%

Q: What about the inhibition of growth at 10 µM (HL-60(TB)) of the same compound?
A: 74.7%

Q: And the inhibition of growth at 10 µM [6]?
A: 78.7%

Q: What about the inhibition of growth at 10 µM (LOX IMVI) of the same compound?
A: 79.4%

Q: And the inhibition of growth at 10 µM (KM12)?
A: 71.5%

Q: What about the inhibition of growth at 10 µM (IGROV-1) of the same compound?
A: 74.9%

Q: What about the inhibition of growth at 10 µM (K562) of the same compound?
A: 66.1%

Q: What about the inhibition of growth at 10 µM (DU-145) of the same compound?
A: 85.5%

Q: What about the inhibition of growth at 10 µM (M14) of the same compound?
A: 62.6%

Q: And the inhibition of growth at 10 µM (A549)?
A: 73.7%

Q: What about the inhibition of growth at 10 µM (MCF7) of the same compound?
A: 55.8%

Q: And the inhibition of growth at 10 µM (Malme-3M)?
A: 43.2%

Q: What about the inhibition of growth at 10 µM (HCC 2998) of the same compound?
A: 77%

Q: What about the inhibition of growth at 10 µM [7] of the same compound?
A: 76.2%

Q: And the inhibition of growth at 10 µM (NCI-H226)?
A: 76.8%

Q: And the inhibition of growth at 10 µM (SF-539)?
A: 89%

Q: And the inhibition of growth at 10 µM [8]?
A: 76.3%

Q: What about the inhibition of growth at 10 µM (MDA-MB-231 [9]) of the same compound?
A: 97.5%

Q: What about the inhibition of growth at 10 µM (SK-MEL-2) of the same compound?
A: 95.1%

Q: What about the inhibition of growth at 10 µM (PC-3) of the same compound?
A: 39.3%

Q: What about the inhibition of growth at 10 µM (SNB-19) of the same compound?
A: 67.7%

Q: What about the inhibition of growth at 10 µM (MOLT-4) of the same compound?
A: 53.2%

Q: And the inhibition of growth at 10 µM (SF-295)?
A: 57.1%

Q: And the inhibition of growth at 10 µM [10]?
A: 94%

Q: What about the inhibition of growth at 10 µM (HT-29) of the same compound?
A: 86.9%

Q: And the inhibition of growth at 10 µM [11]?
A: 83.2%

Q: And the inhibition of growth at 10 µM (SN12C)?
A: 73.3%

Q: And the inhibition of growth at 10 µM (SK-MEL-5)?
A: 68.3%

Q: What about the inhibition of growth at 10 µM (SNB-75) of the same compound?
A: 53.7%
